In patent US20110269759A1, “PYRIMIDINE COMPOUNDS AS DELTA OPIOID RECEPTOR MODULATORS” (priority 2009, published 2011):
Read-outs that look alike come from different tables or passages of the source.

What was measured:
Delta Opioid Receptor = biological target: T1, Delta Opioid Receptor (Rattus norvegicus, UniProt P33533); assay: Rat brain delta opioid receptor binding assay ([3H]DPDPE or [3H]naltrindole)
T1 construct: the forebrains were homogenized in Tris buffer in a Teflon®-glass homogenizer; from tissue; host or cells: forebrain of male Wistar rats, particulate membrane preparation
T1 sequence (P33533 whole entry): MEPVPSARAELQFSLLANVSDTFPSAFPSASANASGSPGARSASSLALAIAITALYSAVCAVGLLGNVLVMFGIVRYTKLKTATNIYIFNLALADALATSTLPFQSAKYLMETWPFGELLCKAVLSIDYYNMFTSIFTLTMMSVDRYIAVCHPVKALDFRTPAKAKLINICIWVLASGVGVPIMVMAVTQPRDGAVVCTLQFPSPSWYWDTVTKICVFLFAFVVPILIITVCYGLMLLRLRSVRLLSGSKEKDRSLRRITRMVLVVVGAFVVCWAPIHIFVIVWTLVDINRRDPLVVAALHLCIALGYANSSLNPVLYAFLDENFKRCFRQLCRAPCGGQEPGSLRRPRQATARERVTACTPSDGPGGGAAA

Mu Opioid Receptor = biological target: T2, Mu Opioid Receptor (Rattus norvegicus, UniProt P33535); assay: Rat brain mu opioid receptor binding assay ([3H]DAMGO)
T2 construct: the forebrains were homogenized in Tris buffer in a Teflon®-glass homogenizer; from tissue; host or cells: forebrain of male Wistar rats, particulate membrane preparation
T2 sequence (P33535 whole entry): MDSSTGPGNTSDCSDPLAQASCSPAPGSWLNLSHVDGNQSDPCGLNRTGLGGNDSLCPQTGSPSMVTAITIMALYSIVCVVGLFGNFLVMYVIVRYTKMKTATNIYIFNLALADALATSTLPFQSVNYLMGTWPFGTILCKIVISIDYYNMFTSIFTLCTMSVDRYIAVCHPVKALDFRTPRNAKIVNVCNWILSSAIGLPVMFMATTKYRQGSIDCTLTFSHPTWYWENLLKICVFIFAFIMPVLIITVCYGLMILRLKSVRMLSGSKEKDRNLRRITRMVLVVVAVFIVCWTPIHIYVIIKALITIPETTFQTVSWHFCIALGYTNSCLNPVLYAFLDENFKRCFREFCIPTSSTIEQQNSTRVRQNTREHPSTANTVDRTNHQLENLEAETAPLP

δ-opioid receptor = δ-opioid receptor (Mus musculus, UniProt P32300); assay: [35S]GTPγS δ-opioid receptor functional assay (EC50, relative efficacy, % inhibition); assay type: biochemical; parameters: NG108-15 cell membranes were purchased from Applied Cell Sciences (Rockville, Md.); conditions: for inhibition at 10 µM: read-out: GTPγS δ-opioid receptor % Inh @10 μM
Sequence of δ-opioid receptor (P32300 whole entry): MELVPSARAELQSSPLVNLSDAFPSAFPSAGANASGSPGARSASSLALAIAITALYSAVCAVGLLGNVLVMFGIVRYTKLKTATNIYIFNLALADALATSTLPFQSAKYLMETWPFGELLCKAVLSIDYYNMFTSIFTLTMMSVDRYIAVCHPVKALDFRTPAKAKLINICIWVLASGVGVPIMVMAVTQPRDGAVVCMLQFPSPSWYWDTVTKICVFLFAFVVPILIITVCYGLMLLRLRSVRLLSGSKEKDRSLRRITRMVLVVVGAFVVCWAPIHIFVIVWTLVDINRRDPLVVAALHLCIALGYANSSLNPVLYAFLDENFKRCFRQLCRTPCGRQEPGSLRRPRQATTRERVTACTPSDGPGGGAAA

[1] = rat forebrain membranes, ~4 nM [3H]DPDPE, read-out: δ-binding (DPDPE ligand) Ki
[2] = rat forebrain membranes, ~0.8 nM [3H]DAMGO, read-out: μ-binding Ki
[3] = rat forebrain membranes, 0.25 nM [3H]naltrindole, read-out: δ-binding (Naltrindole ligand) Ki

| SMILES | Ki (Mu Opioid Receptor; [2]) | Ki (Delta Opioid Receptor; [3]) | also measured |
| --- | --- | --- | --- |
| COc1ccc(Oc2ccc(NC3CCCNC3)c(Oc3ccc(OC)cc3)c2)cc1 (racemic) [Cpd 54] | – | – | Ki (Delta Opioid Receptor; [1]): 492 nM; Ki (Mu Opioid Receptor): 9700 nM |
| COc1ccc(Oc2ccc(NCC3CCCNC3)c(Oc3ccc(OC)cc3)c2)cc1 (racemic) [Cpd 61] | > 10000 nM | – | Ki (Delta Opioid Receptor; [1]): 111 nM; EC50 (δ-opioid receptor): 4070 nM; inhibition at 10 µM (δ-opioid receptor): 16.1% |
| CCN(CC)C(=O)CCc1ccc(NC[C@@H]2CCCN2)c(Oc2ccc(OC)cc2)c1 [Cpd 2, N,N-Diethyl-3-[3-(4-methoxyphenoxy)-4-{[(2S)-pyrrolidin-2-ylmethyl]amino}phenyl]propanamide] | > 100000 nM | 26.4 nM | GTPγS δ-opioid receptor Rel Efficacy (δ-opioid receptor): 0.8333; inhibition at 10 µM (δ-opioid receptor): 22.8%; EC50 (δ-opioid receptor; read-out: GTPγS δ-opioid receptor EC50): 39.1 nM |
| COc1ccc(CCc2ccc(NC[C@@H]3CCCN3)c(Oc3ccc(OC)cc3)c2)cc1 [Cpd 3, (S)-{2-(4-Methoxy-phenoxy)-4-[2-(4-methoxy-phenyl)-ethyl]-phenyl}-pyrrolidin-2-ylmethyl-amine] | > 10000 nM | 120 nM | – |
| COc1ccc(Oc2cc(CCc3cccc(OC)c3)ccc2NC[C@@H]2CCCN2)cc1 [Cpd 4] | – | 210 nM | – |
| COc1ccc(Oc2cc(CCc3ccccc3)ccc2NC[C@@H]2CCCN2)cc1 [Cpd 5] | – | 239 nM | – |
| COc1ccc(Oc2cc(CCc3ccc(F)cc3)ccc2NC[C@@H]2CCCN2)cc1 [Cpd 6] | – | 684 nM | – |
| COc1ccc(Oc2cc(CCc3cccc(F)c3)ccc2NC[C@@H]2CCCN2)cc1 [Cpd 7] | – | 229 nM | – |
| CCN(CC)C(=O)c1cccc(CCc2ccc(NC[C@@H]3CCCN3)c(Oc3ccc(OC)cc3)c2)c1 [Cpd 8, (S)-N,N-Diethyl-3-(2-{3-(4-methoxy-phenoxy)-4-[(pyrrolidin-2-ylmethyl)-amino]-phenyl}-ethyl)-benzamide] | – | 127 nM | Ki (Mu Opioid Receptor): 9000 nM |
| CCN(CC)C(=O)c1ccc(NC[C@@H]2CCCN2)c(Oc2ccccc2)c1 [Cpd 9, (S)-N,N-Diethyl-3-phenoxy-4-[(pyrrolidin-2-ylmethyl)-amino]-benzamide] | > 10000 nM | 1020 nM | – |
| CCN(CC)C(=O)c1ccc(NC[C@@H]2CCCN2)c(Oc2ccccc2OC)c1 [Cpd 11] | – | – | Ki (Delta Opioid Receptor; [1]): 105 nM; EC50 (δ-opioid receptor): 319 nM |
| N#Cc1ccc(Oc2cc(-c3ccccc3)ccc2NC[C@@H]2CCCN2)cc1 [Cpd 12, (S)-4-{4-[(Pyrrolidin-2-ylmethyl)-amino]-biphenyl-3-yloxy}-benzonitrile] | > 10000 nM | 996 nM | – |
| N#Cc1cccc(Oc2cc(-c3ccccc3)ccc2NC[C@@H]2CCCN2)c1 [Cpd 13] | – | 402 nM | – |
| c1ccc(Oc2cc(-c3ccccc3)ccc2NC[C@@H]2CCCN2)cc1 [Cpd 14] | – | 113 nM | – |
| COc1cccc(Oc2cc(-c3ccccc3)ccc2NC[C@@H]2CCCN2)c1 [Cpd 15] | – | 289 nM | – |
| Fc1ccc(Oc2cc(-c3ccccc3)ccc2NC[C@@H]2CCCN2)cc1 [Cpd 16] | – | 419 nM | – |
| FC(F)(F)Oc1ccc(Oc2cc(-c3ccccc3)ccc2NC[C@@H]2CCCN2)cc1 [Cpd 17] | – | 1470 nM | – |
| Clc1cccc(Cl)c1Oc1cc(-c2ccccc2)ccc1NC[C@@H]1CCCN1 [Cpd 18] | – | 108 nM | EC50 (δ-opioid receptor): 1040 nM; GTPγS δ-opioid receptor Rel Efficacy (δ-opioid receptor): 0.763; inhibition at 10 µM (δ-opioid receptor): 23.4% |
| CNCCNc1ccc(-c2ccccc2)cc1Oc1ccc(OC)cc1 [Cpd 19] | > 10000 nM | 192 nM | – |
| COC(=O)c1ccc(Oc2cc(-c3ccccc3)ccc2NC[C@@H]2CCCN2)cc1 [Cpd 20] | – | 779 nM | – |
| COC(=O)c1cccc(Oc2cc(-c3ccccc3)ccc2NC[C@@H]2CCCN2)c1 [Cpd 21] | – | 887 nM | – |
| Clc1ccc(Oc2cc(-c3ccccc3)ccc2NC[C@@H]2CCCN2)c(Cl)c1 [Cpd 22] | – | 698 nM | – |
| COc1ccc(Oc2cc(-c3ccccc3)ccc2NC2CCNCC2)cc1 [Cpd 23] | > 10000 nM | 461 nM | – |
| COc1ccc(Oc2cc(-c3cncc(OC)c3)ccc2NC[C@@H]2C[C@@H](F)CN2)cc1 [Cpd 27] | – | 1000 nM | – |
| COc1ccc(Oc2cc(-c3cncc(C)c3)ccc2NC[C@@H]2C[C@@H](F)CN2)cc1 [Cpd 28] | – | – | Ki (Delta Opioid Receptor): 6.81 nM; Ki (Mu Opioid Receptor): 4670 nM; EC50 (δ-opioid receptor): 165 nM; GTPγS δ-opioid receptor Rel Efficacy (δ-opioid receptor): 0.8756 |
| NC(=O)c1ccc(Oc2cc(-c3ccccc3)ccc2NC[C@@H]2CCCN2)cc1 [Cpd 29, (S)-4-{4-[(Pyrrolidin-2-ylmethyl)-amino]-biphenyl-3-yloxy}-benzamide] | > 10000 nM | 147 nM | – |
